Tests used:
[1] = biological target: T1, recombinant human CL receptor/RAMP1 (Homo sapiens, UniProt O60894+Q16602); experiment: Recombinant receptor functional assay (cAMP, HTRF); assay type: cell-based; settings: HEK 293 cells, 1.2 nM human α-CGRP, cAMP determination
T1 construct: expressed in transfected cells
Procedure: (§1) RECOMBINANT RECEPTOR: Human CL receptor (Genbank accession number L76380) was subcloned into the expression vector pIREShyg2 (BD Biosciences Clontech) as a 5′NheI and 3′ PmeI fragment. Human RAMP1 (Genbank accession number AJ001014) was subcloned into the expression vector pIRESpuro2 (BD Biosciences Clontech) as a 5′NheI and 3′NotI fragment. HEK 293 cells (human embryonic kidney cells; ATCC #CRL-1573) were cultured in DMEM with 4.5 g/L glucose, 1 mM sodium pyruvate and 2 mM glutamine supplemented with 10% fetal bovine serum (FBS), 100 units/mL penicillin and 100 μg/mL streptomycin, and maintained at 37° C. and 95% humidity. Cells were subcultured by treatment with 0.25% trypsin with 0.1% EDTA in HBSS. Stable cell line generation was accomplished by co-transfecting 10 μg of DNA with 30 μg Lipofectamine 2000 (Invitrogen) in 75 cm^2 flasks. CL receptor and RAMP1 expression constructs were co-transfected in equal amounts. […]
RECOMBINANT RECEPTOR FUNCTIONAL ASSAY: Cells were resuspended in DMEM/F12 (Hyclone) supplemented with 1 g/L BSA and 300 μM isobutyl-methylxanthine. […] Raw data were transformed into concentration of cAMP using a standard curve then dose response curves were plotted and inflection point (IP) values were determined.

[2] = biological target: T1, recombinant human CL receptor/RAMP1; experiment: Recombinant receptor binding assay (125I-hCGRP); settings: membranes of HEK 293 cells expressing human CL receptor/RAMP1, 10 pM 125I-hCGRP, 3 h room temperature
Procedure: as §1
[formula] Where Y is observed CPM bound, Ymax is total bound counts, Ymin is non specific bound counts, (Ymax−Ymin) is specific bound counts, % Imax is the maximum percent inhibition, % I min is the minimum percent inhibition, radiolabel is the probe, and the Kd is the apparent dissociation constant for the radioligand for the receptor as determined by hot saturation experiments.

T1 sequence (Q16602 23-461): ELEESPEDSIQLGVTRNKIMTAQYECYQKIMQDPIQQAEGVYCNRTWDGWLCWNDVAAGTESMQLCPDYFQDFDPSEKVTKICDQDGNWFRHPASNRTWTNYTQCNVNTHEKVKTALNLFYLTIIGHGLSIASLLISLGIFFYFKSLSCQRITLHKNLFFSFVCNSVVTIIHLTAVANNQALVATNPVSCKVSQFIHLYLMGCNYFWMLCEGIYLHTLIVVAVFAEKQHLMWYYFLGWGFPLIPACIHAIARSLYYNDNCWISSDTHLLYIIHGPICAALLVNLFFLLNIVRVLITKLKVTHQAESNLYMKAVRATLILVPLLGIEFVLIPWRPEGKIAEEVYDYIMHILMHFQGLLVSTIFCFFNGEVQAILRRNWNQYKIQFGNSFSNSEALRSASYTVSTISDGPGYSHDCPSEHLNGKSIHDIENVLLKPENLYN
T1 sequence (O60894 27-148): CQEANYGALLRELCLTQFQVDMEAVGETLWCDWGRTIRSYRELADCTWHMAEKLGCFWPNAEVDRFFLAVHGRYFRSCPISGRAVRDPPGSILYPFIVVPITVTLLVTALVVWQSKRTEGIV

IC50 [1] [nM] | Ki [2] [nM] | Compound
7.2 | – | CC1C(c2cc(F)cc(F)c2F)CC(CC=Cc2cnc3c(c2)C[C@@]2(C3)C(=O)Nc3ncccc32)C(=O)N1CC(F)(F)F (stereo partly drawn) [Example 1, (3′S)-3-(3-(6-Methyl-2-oxo-1-(2,2,2-trifluoroethyl)-5-(2,3,5-trifluorophenyl)piperidin-3-yl)prop-1-en-1-yl)-5,7-dihydrospiro[cyclopenta[b]pyridine-6,3′-pyrrolo[2,3-b]pyridin]-2′(1′H)-one]
– | 409 | C[C@@H]1[C@H](c2ccccc2)C[C@H](NCC(F)(F)c2cnc3c(c2)C[C@@]2(C3)C(=O)Nc3ncccc32)C(=O)N1CC(F)(F)F [Example 2, (6S)-3-(1,1-Difluoro-2-(((3S,5S,6R)-6-methyl-2-oxo-5-phenyl-1-(2,2,2-trifluoroethyl)piperidin-3-yl)amino)ethyl)-5,7-dihydrospiro[cyclopenta[b]pyridine-6,3′-pyrrolo[2,3-b]pyridin]-2′(1′H)-one]
3720 | – | C[C@@H]1[C@H](c2ccccc2)C[C@H](NS(=O)(=O)c2cnc3c(c2)C[C@@]2(C3)C(=O)Nc3ncccc32)C(=O)N1CC(F)(F)F [Example 3, (6S)—N-[(3S,5S,6R)-6-Methyl-2-oxo-5-phenyl-1-(2,2,2-trifluoroethyl)piperidin-3-yl]-2′-oxo-1′,2′,5,7-tetrahydrospiro[cyclopenta[b]pyridine-6,3′-pyrrolo[2,3-b]pyridine]-3-sulfonamide]
